# Measured values reported in US20230279025A1, “KRAS G12D INHIBITORS” (Mirati Therapeutics, Inc., priority 2020, published 2023).
# Target: KRas G12D (Homo sapiens (Human), UniProt P01116, G12D)
# Experiment: KRas G12D Binding Assay (TR-FRET displacement of Cy5 labelled tracer)
# Conditions: GDP-loaded KRAS G12D (amino acids 1:169), 60 minute incubation at 22° C.
# Protocol: After a 60 minute incubation at 22° C., the reaction was measured using a PerkinElmer EnVision multimode plate reader via TR-FRET dual wavelength detection, and the percent of control (POC) calculated using a ratiometric emission factor. […] The POC values were fit to a 4-parameter logistic curve and the IC50 value was determined as the concentration where the curve crosses 50 POC.
# ND stands for “not determined.”
# Chain of KRas G12D (P01116 other isoform, or with tags, fused parts or gaps G12D): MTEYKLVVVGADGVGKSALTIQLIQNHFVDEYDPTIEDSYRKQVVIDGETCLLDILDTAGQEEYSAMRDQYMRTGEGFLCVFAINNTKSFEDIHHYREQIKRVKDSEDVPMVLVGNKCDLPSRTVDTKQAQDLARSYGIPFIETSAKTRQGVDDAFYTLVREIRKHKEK
row,Compound,IC50
1,"CCNc1c(F)cccc1-c1ncc2c(N3C[C@H]4CC[C@@H](C3)N4)nc(OCC34CCCN3CCC4)nc2c1F [Example 269, 2-(4-((1R,5S)-3,8-diazabicyclo[3.2.1]octan-3-yl)-8-fluoro-2-((hexahydro-1H-pyrrolizin-7a-yl)methoxy)pyrido[4,3-d]pyrimidin-7-yl)-N-ethyl-6-fluoroaniline]",4040 nM
2,"Oc1cc(-c2ncc3c(N4C[C@H]5CC[C@@H](C4)N5)nc(OCC45CCCN4CCC5)nc3c2F)c2c(Cl)c(F)ccc2c1 [Example 245, 4-(4-((1R,5S)-3,8-diazabicyclo[3.2.1]octan-3-yl)-8-fluoro-2-((hexahydro-1H-pyrrolizin-7a-yl)methoxy)pyrido[4,3-d]pyrimidin-7-yl)-5-chloro-6-fluoronaphthalen-2-ol]",0.5 nM
3,"Nc1cccc(F)c1-c1ncc2c(N3C[C@H]4CC[C@@H](C3)N4)nc(OCC34CCCN3CCC4)nc2c1F [Example 265, 2-(4-((1R,5S)-3,8-diazabicyclo[3.2.1]octan-3-yl)-8-fluoro-2-((hexahydro-1H-pyrrolizin-7a-yl)methoxy)pyrido[4,3-d]pyrimidin-7-yl)-3-fluoroaniline]",794 nM
4,"NC1(COc2nc(N3C[C@H]4CC[C@@H](C3)N4)c3cnc(-c4cccc5cccc(Cl)c45)c(F)c3n2)CCCCC1 [Example 262, 1-(((4-((1R,5S)-3,8-diazabicyclo[3.2.1]octan-3-yl)-7-(8-chloronaphthalen-1-yl)-8-fluoropyrido[4,3-d]pyrimidin-2-yl)oxy)methyl)cyclohexanamine]",2260 nM
5,"Oc1ccc(CC(F)(F)F)c(-c2ncc3c(N4C[C@H]5CC[C@@H](C4)N5)nc(OC[C@@]45CCCN4C[C@H](F)C5)nc3c2F)c1 [Example 424, 3-(4-((1R,5S)-3,8-diazabicyclo[3.2.1]octan-3-yl)-8-fluoro-2-(((2R,7aS)-2-fluorohexahydro-1H-pyrrolizin-7a-yl)methoxy)pyrido[4,3-d]pyrimidin-7-yl)-4-(2,2,2-trifluoroethyl)phenol]",5 nM
6,"CCc1c(F)ccc2cccc(-c3ncc4c(N5C[C@H]6CC[C@@H](C5)N6)nc(OCC56CCCN5CCC6)nc4c3F)c12 [Example 426, 4-((1R,5S)-3,8-diazabicyclo[3.2.1]octan-3-yl)-7-(8-ethyl-7-fluoronaphthalen-1-yl)-8-fluoro-2-((hexahydro-1H-pyrrolizin-7a-yl)methoxy)pyrido[4,3-d]pyrimidine]",0.9 nM
7,"Nc1nc2c(-c3ncc4c(N5C[C@H]6CC[C@@H](C5)N6)nc(OCC56CCCN5CCC6)nc4c3F)ccc(F)c2s1 [Example 455, 4-(4-((1R,5S)-3,8-diazabicyclo[3.2.1]octan-3-yl)-8-fluoro-2-((hexahydro-1H-pyrrolizin-7a-yl)methoxy)pyrido[4,3-d]pyrimidin-7-yl)-7-fluorobenzo[d]thiazol-2-amine]",17 nM
8,"Oc1cccc(OC(F)(F)F)c1-c1ncc2c(N3CC4CCC(C3)N4)nc(OC[C@@]34CCCN3C[C@H](F)C4)nc2c1F [Example 392, 2-(4-((1R,5S)-3,8-diazabicyclo[3.2.1]octan-3-yl)-8-fluoro-2-((2-fluorotetrahydro-1-H-pyrrolizin-7a(5H)-yl)methoxy)pyrido[4,3-d]pyrimidin-7-yl)-3-(trifluoromethoxy)phenol]",208 nM
9,"Oc1cc(-c2ncc3c(N4C[C@H]5CC[C@@H](C4)N5)nc(OCC45CCCN4C(CF)CC5)nc3c2F)c2ccccc2c1 (mixture of isomers) [Example 384, 4-(4-((1R,5S)-3,8-diazabicyclo[3.2.1]octan-3-yl)-8-fluoro-2-((3-(fluoromethyl)tetrahydro-1H-pyrrolizin-7a(5H)-yl)methoxy)pyrido[4,3-d]pyrimidin-7-yl)naphthalen-2-ol]",2.4 nM
10,"Cc1cccc(O)c1-c1ncc2c(N3CC4CCC(C3)N4)nc(OC[C@@]34CCCN3C[C@H](F)C4)nc2c1F (racemic) [Example 377, 2-(4-((1R,5S)-3,8-diazabicyclo[3.2.1]octan-3-yl)-8-fluoro-2-((2-fluorotetrahydro-1H-pyrrolizin-7a(5H)-yl)methoxy)pyrido[4,3-d]pyrimidin-7-yl)-3-methylphenol]",417 nM
